# In patent publication US20260297070A1, “CYCLIC [COMPOUND LEFT OUT] WRN INHIBITORS” (Nimbus Wadjet, Inc., priority 2023, published 2026):
# Molecular target: T1, human Werner helicase (WRN-BV08, Uniprot Q14191, amino acids 517-1235 with L1074F point mutation) (Homo sapiens, UniProt Q14191, L1074F)
# T1 construct: Uniprot Q14191, amino acids 517-1235 with L1074F point mutation; TEV-cleavable 8×His (C, cleaved yes); made in house; host or cells: Sf9 insect cells (baculovirus)
# Experiment: WRN (BV08) ADP-Glo Assay
# Format: biochemical
# Conditions: 0.15 nM WRN, 5 μM ATP, 0.1 nM DNA duplex, 15 min preincubation, 60 min at 25° C., pH 7.5, 1% DMSO; read-out: ADP-Glo_hWRN_IC50
# In short: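 Untagged WRN (Sf9-expressed, TEV-cleaved) at 0.15 nM was preincubated 15 min at 25 °C with compound, then reacted 60 min at 25 °C with 5 μM ATP and 0.1 nM DNA duplex in Bicine pH 7.5, 1 mM MgCl2. ADP-Glo luminescence gave % inhibition; IC50 by four-parameter fit.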
# T1 sequence (Q14191 with tags, fused parts or gaps L1074F limits assumed): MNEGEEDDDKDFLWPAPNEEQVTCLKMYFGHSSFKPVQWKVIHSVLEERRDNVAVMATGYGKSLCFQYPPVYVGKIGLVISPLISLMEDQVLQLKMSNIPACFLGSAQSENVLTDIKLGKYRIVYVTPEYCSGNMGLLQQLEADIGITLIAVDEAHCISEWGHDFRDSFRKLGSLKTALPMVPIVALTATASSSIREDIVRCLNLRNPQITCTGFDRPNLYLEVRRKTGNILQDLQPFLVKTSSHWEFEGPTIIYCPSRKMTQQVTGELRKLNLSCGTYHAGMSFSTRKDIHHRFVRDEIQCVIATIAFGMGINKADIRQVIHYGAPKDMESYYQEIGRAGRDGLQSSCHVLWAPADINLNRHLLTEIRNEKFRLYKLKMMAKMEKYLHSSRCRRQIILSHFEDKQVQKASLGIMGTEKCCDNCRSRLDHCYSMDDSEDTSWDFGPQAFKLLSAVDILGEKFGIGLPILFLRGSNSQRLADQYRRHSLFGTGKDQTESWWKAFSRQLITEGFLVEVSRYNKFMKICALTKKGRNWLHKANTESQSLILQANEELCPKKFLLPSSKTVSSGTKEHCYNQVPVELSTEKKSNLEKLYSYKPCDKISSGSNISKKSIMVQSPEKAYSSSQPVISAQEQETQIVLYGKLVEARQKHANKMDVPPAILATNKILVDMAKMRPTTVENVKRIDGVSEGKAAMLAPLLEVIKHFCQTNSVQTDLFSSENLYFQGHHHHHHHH
row,SMILES,IC50
1,"O=C(Cc1ccc(S(=O)(=O)C(F)F)cc1)N(Cc1ccncc1)C1C=CS(=O)(=O)C1 (centres unmarked) [I-351, 2-(4-difluoromethanesulfonylphenyl)-N-(1,1-dioxo-2,3-dihydro-1lambda6-thiophen-3-yl)-N-[(pyridin-4-yl)methyl]acetamide]",10 to 50 µM
2,"COc1cc(CN(C(=O)Cc2ccc(-c3ccc(F)cc3)cc2)C2C=CS(=O)(=O)C2)on1 (centres unmarked) [I-247, N-(1,1-dioxo-2,3-dihydro-1lambda6-thiophen-3-yl)-2-{4′-fluoro-[1,1′-biphenyl]-4-yl}-N-[(3-methoxy-1,2-oxazol-5-yl)methyl]acetamide]",5 to 10 µM
3,"Cn1ncc2cc(CN(C(=O)Cc3ccc(-n4cccc4)cc3)C3C=CS(=O)(=O)C3)ccc21 (centres unmarked) [I-226, N-(1,1-dioxo-2,3-dihydro-1lambda6-thiophen-3-yl)-N-[(1-methyl-1H-indazol-5-yl)methyl]-2-[4-(1H-pyrrol-1-yl)phenyl]acetamide]",5 to 10 µM
4,"COc1cc(CN(C(=O)C(OC)c2ccc(-c3ccc(F)cc3)cc2F)C2C=CS(=O)(=O)C2)ccn1 (single isomer, unassigned) [I-33, (2R*)-2-{3,4′-difluoro-[1,1′-biphenyl]-4-yl}-N-[(3R**)-1,1-dioxo-2,3-dihydro-1lambda6-thiophen-3-yl]-2-methoxy-N-[(2-methoxypyridin-4-yl)methyl]acetamide]",< 0.5 µM
5,"O=C(Cc1ccc(-n2cccc2)cc1)N(Cc1nc2cnccc2s1)C1C=CS(=O)(=O)C1 (centres unmarked) [I-165, N-(1,1-dioxo-2,3-dihydro-1lambda6-thiophen-3-yl)-2-[4-(1H-pyrrol-1-yl)phenyl]-N-({[1,3]thiazolo[4,5-c]pyridin-2-yl}methyl)acetamide]",0.5 to 5 µM
6,"C#CCCCC(=O)N1CCN(Cc2ccc(CN(C(=O)Cc3ccc(-n4cccc4)cc3F)C3C=CS(=O)(=O)C3)cc2)CC1 (centres unmarked) [I-211, N-(1,1-dioxo-2,3-dihydro-1lambda6-thiophen-3-yl)-2-[2-fluoro-4-(1H-pyrrol-1-yl)phenyl]-N-[(4-{[4-(hex-5-ynoyl)piperazin-1-yl]methyl}phenyl)methyl]acetamide]",0.5 to 5 µM
7,"CSC(C(=O)N(Cc1ccnc(C(C)(C)O)c1)C1C=CS(=O)(=O)C1)c1ccc(-c2ccc(F)c(F)c2)cc1F (centres unmarked) [I-36, N-(1,1-dioxido-2,3-dihydrothiophen-3-yl)-N-((2-(2-hydroxypropan-2-yl)pyridin-4-yl)methyl)-2-(methylthio)-2-(3,3′,4′-trifluoro-[1,1′-biphenyl]-4-yl)acetamide]",< 0.5 µM
8,"CN(C)C(=O)C(C(=O)N(Cc1ccnc(C(C)(C)O)c1)C1C=CS(=O)(=O)C1)c1ccc(-c2ccc(F)cc2)cc1 (single isomer, unassigned) [I-264, (2R**)-N-[(3R*)-1,1-dioxo-2,3-dihydro-1lambda6-thiophen-3-yl]-2-{4′-fluoro-[1,1′-biphenyl]-4-yl}-N-{[2-(2-hydroxypropan-2-yl)pyridin-4-yl]methyl}-N′,N′-dimethylpropanediamide]",5 to 10 µM
9,"O=C(Cc1ccc(-n2cccc2)cc1)N(Cc1cccc(-n2cccn2)c1)C1C=CS(=O)(=O)C1 (centres unmarked) [I-232, N-(1,1-dioxo-2,3-dihydro-1lambda6-thiophen-3-yl)-N-{[3-(1H-pyrazol-1-yl)phenyl]methyl}-2-[4-(1H-pyrrol-1-yl)phenyl]acetamide]",5 to 10 µM
10,"CN(C)C(=O)C(C(=O)N(Cc1ccnc(C(C)(C)O)c1)C1C=CS(=O)(=O)C1)c1ccc(-c2ccc(F)cc2)cc1F (single isomer, unassigned) [I-237, (2R**)-2-{3,4′-difluoro-[1,1′-biphenyl]-4-yl}-N-[(3R*)-1,1-dioxo-2,3-dihydro-1lambda6-thiophen-3-yl]-N-{[2-(2-hydroxypropan-2-yl)pyridin-4-yl]methyl}-N′,N′-dimethylpropanediamide]",5 to 10 µM
11,"COc1cc(CN(C(=O)C(C(=O)N(C)C)c2ccc(-c3ccc(F)cc3)cc2F)C2C=CS(=O)(=O)C2)ccn1 (single isomer, unassigned) [I-312, (2R**)-2-{3,4′-difluoro-[1,1′-biphenyl]-4-yl}-N-[(3R*)-1,1-dioxo-2,3-dihydro-1lambda6-thiophen-3-yl]-N-[(2-methoxypyridin-4-yl)methyl]-N′,N′-dimethylpropanediamide]",> 50 µM
12,"O=C(Cc1ccc(-n2cccc2)cc1)N(Cc1ccnc(OC(F)F)c1)C1C=CS(=O)(=O)C1 (centres unmarked) [I-215, N-{[2-(difluoromethoxy)pyridin-4-yl]methyl}-N-(1,1-dioxo-2,3-dihydro-1lambda6-thiophen-3-yl)-2-[4-(1H-pyrrol-1-yl)phenyl]acetamide]",0.5 to 5 µM
13,"O=C(Cc1ccc(-n2cccc2)cc1)N(Cc1ccccc1)C1C=CS(=O)(=O)C1 (single isomer, unassigned) [I-262]",5 to 10 µM
14,"CC(C)(O)c1cc(CN(C(=O)Cc2ccc(-c3ccc(F)cc3)cc2F)C2C=CS(=O)(=O)C2)ccn1 (centres unmarked) [I-52, 2-{3,4′-difluoro-[1,1′-biphenyl]-4-yl}-N-(1,1-dioxo-2,3-dihydro-1lambda6-thiophen-3-yl)-N-{[2-(2-hydroxypropan-2-yl)pyridin-4-yl]methyl}acetamide]",< 0.5 µM

# The remaining lines, values ahead:
row,IC50,SMILES
1,< 0.5 µM,"CC(C)(O)c1cc(CN(C(=O)C(OCC(F)F)c2ccc(-c3ccc(F)c(F)c3)cc2F)[C@@H]2C=CS(=O)(=O)C2)ccn1 (single isomer, unassigned) [I-813]"
2,5 to 10 µM,"CC(C(=O)N(Cc1ccnc(C(C)(C)O)c1)[C@@H]1C=CS(=O)(=O)C1)n1cc(-c2ccc(C(F)(F)F)cc2)cn1 (single isomer, unassigned) [I-788]"
3,> 50 µM,"CN(C)C(=O)CC(C(=O)N(Cc1ccncc1)C1C=CS(=O)(=O)C1)c1ccc(-n2cccc2)cc1 (centres unmarked) [I-551, N-(1,1-dioxo-2,3-dihydro-1lambda6-thiophen-3-yl)-N′,N′-dimethyl-N-[(pyridin-4-yl)methyl]-2-[4-(1H-pyrrol-1-yl)phenyl]butanediamide]"
4,> 50 µM,"O=C(Cc1ccc(-n2cccc2)cc1)N(Cc1ccc2[nH]ccc2c1)C1C=CS(=O)(=O)C1 (centres unmarked) [I-498, N-(1,1-dioxo-2,3-dihydro-1lambda6-thiophen-3-yl)-N-[(1H-indol-5-yl)methyl]-2-[4-(1H-pyrrol-1-yl)phenyl]acetamide]"
5,> 50 µM,"COc1ccc2c(c1)CCCC2C(=O)N(Cc1ccncc1)C1C=CS(=O)(=O)C1 (centres unmarked) [I-717, N-(1,1-dioxo-2,3-dihydro-1lambda6-thiophen-3-yl)-6-methoxy-N-[(pyridin-4-yl)methyl]-1,2,3,4-tetrahydronaphthalene-1-carboxamide]"
6,> 50 µM,"O=C(Cc1ccc(-n2cccc2)cc1)N(Cc1nc(C2CC2)cs1)[C@H]1C=CS(=O)(=O)C1 [I-402, N-[(4-cyclopropyl-1,3-thiazol-2-yl)methyl]-N-[(3S)-1,1-dioxo-2,3-dihydro-1lambda6-thiophen-3-yl]-2-[4-(1H-pyrrol-1-yl)phenyl]acetamide]"
7,0.5 to 5 µM,"COc1cc(CN(C(=O)Cn2ncc3cc(OC(F)(F)F)ccc32)[C@@H]2C=CS(=O)(=O)C2)ccn1 [I-721, N-[(3R)-1,1-dioxo-2,3-dihydro-1lambda6-thiophen-3-yl]-N-[(2-methoxypyridin-4-yl)methyl]-2-[5-(trifluoromethoxy)-1H-indazol-1-yl]acetamide]"
8,0.5 to 5 µM,"CC(C)(O)c1cc(CN(C(=O)Cc2ccc(C3(C(F)(F)F)CC3)cc2)C2C=CS(=O)(=O)C2)ccn1 (single isomer, unassigned) [I-663]"
9,0.5 to 5 µM,"CC(=O)N1CCN(C(=O)C(C(=O)N(Cc2ccncc2)C2C=CS(=O)(=O)C2)c2ccc(-c3ccc(F)cc3)cc2)CC1 (centres unmarked) [I-667, 3-(4-acetylpiperazin-1-yl)-N-(1,1-dioxo-2,3-dihydro-1lambda6-thiophen-3-yl)-2-{4′-fluoro-[1,1′-biphenyl]-4-yl}-3-oxo-N-[(pyridin-4-yl)methyl]propanamide]"
10,10 to 50 µM,"COC(C(=O)N(Cc1ccncc1)C1C=CS(=O)(=O)C1)c1ccc(-c2ccc(C)cc2)cc1 (centres unmarked) [I-356, N-(1,1-dioxo-2,3-dihydro-1lambda6-thiophen-3-yl)-2-methoxy-2-{4′-methyl-[1,1′-biphenyl]-4-yl}-N-[(pyridin-4-yl)methyl]acetamide]"
11,> 50 µM,"CC(C)(C)OC(=O)NC(C(=O)N(Cc1ccccc1)C1C=CS(=O)(=O)C1)c1ccc(-n2cccc2)cc1 (centres unmarked) [I-535, tert-butyl N-{[benzyl(1,1-dioxo-2,3-dihydro-1lambda6-thiophen-3-yl)carbamoyl][4-(1H-pyrrol-1-yl)phenyl]methyl}carbamate]"
12,0.5 to 5 µM,"COc1cc(CN(C(=O)Cn2cc3cc(OC(F)(F)F)ccc3n2)[C@@H]2C=CS(=O)(=O)C2)ccn1 [I-720, N-[(3R)-1,1-dioxo-2,3-dihydro-1lambda6-thiophen-3-yl]-N-[(2-methoxypyridin-4-yl)methyl]-2-[5-(trifluoromethoxy)-2H-indazol-2-yl]acetamide]"
13,0.5 to 5 µM,"COc1cc(CN(C(=O)C(c2ccc(-c3ccc(F)c(F)c3)cc2F)n2cc(C(C)(C)O)cn2)[C@@H]2C=CS(=O)(=O)C2)ccn1 (stereo partly drawn) [I-758, N-[(3R)-1,1-dioxo-2,3-dihydro-1lambda6-thiophen-3-yl]-2-[4-(2-hydroxypropan-2-yl)-1H-pyrazol-1-yl]-N-[(2-methoxypyridin-4-yl)methyl]-2-{3,3′,4′-trifluoro-[1,1′-biphenyl]-4-yl}acetamide]"
14,> 50 µM,"CC(C)(C)OC(=O)N1CC(C(=O)N(Cc2ccncc2)C2C=CS(=O)(=O)C2)c2ccc(-c3ccc(F)cc3)cc21 (centres unmarked) [I-569, tert-butyl 3-[(1,1-dioxo-2,3-dihydro-1lambda6-thiophen-3-yl)[(pyridin-4-yl)methyl]carbamoyl]-6-(4-fluorophenyl)-2,3-dihydro-1H-indole-1-carboxylate]"
15,> 50 µM,"O=C(Cn1cc(C2CC2)cn1)N(Cc1ccncc1)C1C=CS(=O)(=O)C1 (centres unmarked) [I-429, 2-(4-cyclopropyl-1H-pyrazol-1-yl)-N-(1,1-dioxo-2,3-dihydro-1lambda6-thiophen-3-yl)-N-[(pyridin-4-yl)methyl]acetamide]"
